According to EP1124847B1, “LHRH ANALOGUES FOR THE TREATMENT OF OSTEOPOROSIS” (Ferring B.V., priority 1998, dated 2004):

Assay: Serum calcium in the ovariectomised rat (colorimetric assay, day 28)
Format: in vivo, Sprague Dawley rats
Conditions: ovariectomised rats, 80µg/kg daily for 28days
Experimental: • (a) Female adult (8 weeks old, 200-215g) Sprague Dawley rats were bilaterally ovariectomised (OVX). Animals were kept for 4 weeks […] before commencing treatment. -Purina rat chow (1.00% calcium, 0.61% phosphorous) and water were provided ad libitum. Each study consisted of 6 weight-matched groups (n = 8/group). • (b) Treatment started 4 weeks post-OVX. After 4 weeks, a baseline control OVX group was sacrificed (Group A). The remaining groups were injected once a day with vehicle (Group B), 1µg/kg body weight (Group C), 10µg/kg body weight (Group D), 100µg/kg body weight (Group E) of GnRH-II, and 80µg/kg body weight (Group F) of hPTH(1-34). • (c) All rats were weighed every fourth day and dosages adjusted for 50g increase in mean group weight. Rats were given alternate subcutaneous injections ofcalcein (30mg/kg) or tetracyclin (30mg/kg) in 2% sodium bicarbonate-saline, respectively to label mineralization surfaces on days 10, 19 and 26, following treatment with drug. Bone mineral density was assessed by dual energy x-ray absorptometry-DEXA). On day 28 serum calcium levels were determined by colorimetric assay using a commercial kit. • (d) Success of OVX was confirmed at necropsy by failure to detect ovarian tissue and by observation of marked atrophy of the uterine horns. Both legs were disarticulated at the hip. […]

Substance: PTH: Parathyroid hormone, hPTH(1-34), 80µg/kg comparison group (Group F) (SVSEIQLMHNLGKHLNSMERVEWLRKKLQDVHNF; Parathyroid hormone; UniProt P01270 32-65, looked up, fragment)
- serum calcium: pronounced hypercalcemia
